Data as given in the NIST ThermoML archive (doi:10.1021/acs.jced.7b00836).
Numbers after ± are expanded uncertainties.

Details: Liquid, Closed cell (Static) method

CCCCCC [hexane]
vapor or sublimation pressure (288.24 K): 17 ± 4 kPa | vapor or sublimation pressure (296.23 K): 21 ± 4 kPa

CCCCC [pentane]
vapor or sublimation pressure (288.25 K): 48 ± 4 kPa | vapor or sublimation pressure (296.24 K): 66 ± 4 kPa
